Results as given in patent US20100260680A1, “NOVEL BONE MASS INCREASING AGENT” (ORIENTAL YEAST CO., LTD., priority 2007, published 2010).
Bridges are numbered along the chain shown (N, C = ends). Where no end group is shown, it is not given here.

What was measured:
MC3T3-E1 cells = experiment: ALP activity determination in MC3T3-E1 cells; type: cell-based, mouse; details: for inhibition of ALP activity enhancement caused by BMP-2: 100 ng/ml BMP-2; for inhibition of ALP activity enhancement caused by peptide D: 200 μM peptide D
Experimental: Seven days after differentiation, the culture supernatant was removed from each plate and the cells were fixed with an acetone/ethanol solution. The ALP activity was determined using p-nitrophenyl phosphate as a substrate. Specifically, a carbonate buffer (5 mM MgCl2, 50 mM NaHCO3) containing p-nitrophenyl phosphate (Nacalai) (1 mg/mL) was added to each well (100 μL/well), followed by incubation at 37° C. Then, the OD value at 405 nm was determined with the use of a microplate reader (BMG Labtech) for each well.
Cells mixed with 10% FBS+αMEM (GIBCO) were seeded on a 96-well plate (8×10^3 cells/well) and a 48-well plate (2×10^4 cells/well). The culture supernatant of each plate was replaced with 10% FBS+αMEM containing 5 mM β glycerophosphoric acid (SIGMA)+10 μg/mL sodium ascorbate (SIGMA) 48 hours later. Then, the medium was replaced with new medium every 3 or 4 days. As a control, MC3T3-E1 was cultured with the use of 10% FBS+αMEM as a maintenance medium. Upon medium replacement, a peptide was added to each plate at a concentration of 300 μM, ALP activity determination and alizarin red S staining were carried out by the method described in Example 1 on Days 7 and 21.
MC3T3-E1 cells mixed with 10% FBS+αMEM (SIGMA) were seeded on a 96-well plate (1.5×10^4 cells/well). After 12 hours, the medium was removed therefrom and a medium containing an SB203580 p38 inhibitor (Calbiochem) was added thereto. […] Then, ALP activity determination was carried out by the method described in Example 1.
Similarly, rhDkk-1 (R&D) was added as a Wnt antagonist at concentrations of 0.25, 0.5, and 1 μg/ml. After 1 hour, 200 μM peptide D was added thereto, followed by culture for 5 days. Then, ALP activity determination was carried out by the method described in Example 1.
In addition, as described above, BMPR-IA (R&D) was added as a BMP antagonist at concentrations of 0.25 and 1 μg/ml. […] Then, ALP activity determination was carried out by the method described in Example 1. […] Based on the above results, it was likely that actions of peptide D depend on BMP induction or BMP produced constantly and spontaneously by cells.
MC3T3-E1 cells mixed with 10% FBS+α MEM (SIGMA) were seeded on a 96-well plate (1.5×10^4 cells/well).
Further, peptide D and peptide E were compared with each other in terms of ALP activity enhancement actions in MC3T3-E1 cells. Peptide D and peptide E were used at concentrations of 25, 50, 100, and 200 μM for culture under the conditions described in Example 14, followed by determination of ALP activity by the method described in Example 1.
MC3T3-E1 cells (mouse osteoblast precursor cells) mixed with 10% FBS+αMEM (SIGMA) were seeded on a 96-well plate (2×10^4 cells/well). After cell adhesion, the medium was removed therefrom, followed by ALP activity determination in the cases involving the addition of 50 and 150 μM peptide D (acetate and hydrochloride). […] On Day 5 after the addition of the individual factors, the culture supernatant was removed, followed by ALP activity determination by the method described in Example 1.
MC3T3-E1 cells (mouse osteoblast precursor cells) mixed with 10% FBS+αMEM (SIGMA) were seeded on a 96-well plate (2×10^4 cells/well). After cell adhesion had taken place, the medium was removed therefrom, followed by determination of ALP activity in the cases involving the mixing of 5 ng/mLBMP-2 (produced by CHO cells) with 6.25, 12.5, 25, 50, and 100 μM synthetic peptide D. On Day 5 after the addition of the individual factors, the culture supernatant was removed, followed by ALP activity determination by the method described in Example 1.
At the end of the experiment, synergistic effects of synthetic peptide D in the form of acetate and BMP-4 (R&D) were also examined. MC3T3-E1 cells (mouse osteoblast precursor cells) mixed with 10% FBS+αMEM (SIGMA) were seeded on a 96-well plate (2×10^4 cells/well). […]

RAW264 cells = experiment: TRAP activity in RAW264 cells with GST-RANKL; type: cell-based
Experimental: Peptide E (SEQ ID NO: 16) was prepared from peptide D with the substitution of a single amino acid. TRAP activity and ALP activity were determined to compare peptide D and peptide E in terms of effects of causing osteoclast differentiation and osteoblast differentiation. RAW264 cells mixed with 10% FBS+αMEM (SIGMA) were seeded on a 96-well plate (2×10^3 cells/well). After confirmation of cell adhesion, the medium was replaced with 10% FBS+αMEM containing 10 nM GST-RANKL (Oriental Yeast Co., Ltd.). Peptide D and peptide E were separately added thereto at concentrations of 25, 50, 100, and 200 μM, followed by culture for 4 days. After the termination of culture, 100 μL acetone/ethanol was added to each well for cell fixation, followed by drying in a draft for 30 min.
In order to obtain a TRAP solution buffer at a concentration of 1.5 mg/mL, a solution was prepared by adjusting p-nitrophenyl phosphate (Nacalai) with 50 mM citric acid buffer and adding a 0.2 M sodium tartrate solution in a volume 1/10 that of citric acid buffer. The obtained TRAP solution buffer was added to each well in an amount of 100 μL followed by incubation at 37° C. for 45 min. Then, a 1N NaOH solution (50 μL) was added thereto to terminate the reaction. The OD value at 405 nm was determined for each well with a microplate reader (BMG Labtech) in the same manner as in Example 1.
RAW264 cells mixed with 10% FBS+αMEM (SIGMA) were seeded on a 96-well plate (2×10^3 cells/well). After cell adhesion had taken place, the medium was replaced with 10% FBS+αMEM containing 5 nM GST-RANKL (Oriental Yeast Co., Ltd.). Peptide D in the form of TFA, peptide D in the form of acetate, and peptide D in the form of hydrochloride with concentrations of 25 and 100 μM were separately added thereto, followed by culture for 4 days. After the completion of culture, acetone/ethanol (100 μL) was added to each well for cell fixation, followed by drying in a draft for 30 min. TRAP activity determination was carried out by the method described in Example 16. […] Peptide D in the form of hydrochloride was confirmed to have neither osteoblast differentiation activity nor osteoclastgenesis inhibition activity. However, peptide D in the form of acetate was confirmed to have higher osteoblast differentiation activity and lower osteoclastgenesis inhibition activity compared with peptide D in the form of TFA. […] It is also possible to produce modified peptide D having osteoblast differentiation activity alone or modified peptide D having osteoclastgenesis inhibition activity alone.

RANKL = target: T1, RANKL (Homo sapiens, UniProt O14788); details: Aoki et al., J Clin Invest 116: 1525, 2006; cited from earlier work
T1 sequence (O14788 140-317 limits assumed): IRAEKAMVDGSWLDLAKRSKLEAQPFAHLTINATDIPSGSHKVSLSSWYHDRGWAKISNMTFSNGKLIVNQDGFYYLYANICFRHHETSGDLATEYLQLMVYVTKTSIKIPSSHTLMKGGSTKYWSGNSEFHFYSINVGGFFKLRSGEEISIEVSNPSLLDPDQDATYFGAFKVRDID

C57BL/6N mice = experiment: RANKL administration test, bone morphology measurement; type: in vivo, mouse
Experimental: GST-RANKL was intraperitoneally administered at 57 nmol (low dose) or at 426 nmol (high dose) to 7-week-old female C57BL/6N mice (10 individuals) every 24 hours for three times. The mice were dissected 1.5 hours after the third administration. For comparison, a group to which PBS had been administered was used as a control.
The following organs were collected from each dissected mouse: femur, tibia, cerebrum, lungs, heart, liver, thymus, spleen, kidneys, and skin. Naturally occurring lesions were observed by HE staining of the cerebrum, the lungs, the heart, the liver, the thymus, the spleen, the kidneys, and the skin.

[1] = compared at concentrations with almost comparable effects
[2] = high dose 426 nmol i.p. every 24 hours, three times

## C[S+]([O-])c1ccc(-c2nc(-c3ccncc3)c(-c3ccc(F)cc3)[nH]2)cc1 (centres unmarked) [SB203580, reference compound]
MC3T3-E1 cells; SB203580 1 μM, 5 days
  inhibition of ALP activity enhancement caused by BMP-2: significant inhibition of ALP activity enhancement was not observed
  inhibition of ALP activity enhancement caused by peptide D: Significant inhibition
MC3T3-E1 cells; SB203580 10 μM, 5 days
  inhibition of ALP activity enhancement caused by peptide D: complete inhibition
MC3T3-E1 cells; SB203580 at a concentration of 10, 5 days
  inhibition of ALP activity enhancement caused by BMP-2: weak effects of inhibition

## peptide E: SEQ ID NO: 16, prepared from peptide D with the substitution of a single amino acid; cyclic, Cys2-Cys8 disulfide (YCWSQNLCY; disulfide 2-8)
MC3T3-E1 cells; 25, 50, 100 and 200 μM, 5 days
  ALP activity: enhance ALP activity in a concentration-dependent manner
MC3T3-E1 cells; [1]
  ALP activity enhancement actions relative to the initial level (peptide D): approximately ¼
RAW264 cells; 25, 50, 100 and 200 μM, 10 nM GST-RANKL, 4 days
  TRAP activity: inhibit TRAP activity
RAW264 cells; [1]
  TRAP activity inhibition actions relative to the initial level (peptide D): one-half
RANKL
  affinity to sRANKL relative to the initial level (peptide D): approximately ⅓

## Fc fusion peptide A: fusion protein of peptide A (SEQ ID NO: 47, YCAAAAACY) and Fc; negative control [reference compound]
MC3T3-E1 cells; concentrated COS-1 culture supernatant diluted with αMEM, Day 5
  ALP activity: such ALP activity enhancement action was not observed

## GST-RANKL: GST fusion protein with amino acids 140 to 317 of human RANKL (SEQ ID NO: 15)
MC3T3-E1 cells; 100 nM, 100 μM peptide D acetate + 5 ng/mL BMP-2, Day 5
  inhibition of synergistic ALP activity enhancement of peptide D (acetate) and BMP-2: significantly inhibited synergistic effects
C57BL/6N mice; any group (57 nmol, 426 nmol)
  HE staining of cerebrum, lungs, heart, liver, thymus, spleen, kidneys, skin: abnormal findings and naturally occurring lesions were not observed
C57BL/6N mice; [2]
  osteoclast number: increased
  trabecular number: approximately 50%
  unit bone mass: approximately 50%
C57BL/6N mice; high-dose administration
  osteoblast surface area: significantly increased
C57BL/6N mice; high-dose administration group
  femur bone morphology by μCT: significant bone decrease
C57BL/6N mice; low dose 57 nmol i.p. every 24 hours, three times
  unit bone mass and trabecular number: no such decrease was observed

B1: BMPR-IA: BMPR-IA (R&D), BMP antagonist (protein, UniProt P36894 24-152, looked up)
extracellular domain: QNLDSMLHGTGMKSDSDQKKSENGVTLAPEDTLPFLKCYCSGHCPDDAINNTCITNGHCFAIIEEDDQGETTLASGCMKYEGSDFQCKDSPKAQLRRTIECCRTNLCNQYLQPTLPPVVIGPFFDGSIR
modifications: extracellular domain soluble reagent
notes: BMPR-IA (R&D), BMP antagonist
MC3T3-E1 cells; BMPR-IA 0.25 and 1 μg/ml, 200 μM peptide D or 200 ng/ml BMP-2, 5 days
  inhibition of ALP activity enhancement caused by peptide D and BMP-2: significantly inhibit

B2: Dkk-1: rhDkk-1 (R&D), Wnt antagonist (protein, UniProt O94907 32-266, looked up)
Dickkopf-related protein 1: TLNSVLNSNAIKNLPPPLGGAAGHPGSAVSAAPGILYPGGNKYQTIDNYQPYPCAEDEECGTDEYCASPTRGGDAGVQICLACRKRRKRCMRHAMCCPGNYCKNGICVSSDQNHFRGEIEETITESFGNDHSTLDGYSRRTTLSSKMYHTKGQEGSVCLRSSDCASGLCCARHFWSKICKPVLKEGQVCTKHRRKGSHGLEIFQRCYCGEGLSCRIQKDHHQASNSSRLHTCQRH
MC3T3-E1 cells; rhDkk-1 0.25, 0.5 and 1 μg/ml, 5 days
  inhibition of ALP activity enhancement caused by peptide D: weakly but significantly inhibit
